In DBAASP:
Values after ≈ are worked out from the molar mass of the structure shown. Values joined by “and” are separate entries in the source; they are usually repeats but may differ in a detail not shown here. Equal entries are not always repeated.

What was measured:
Experiment in all cases: ≥ marks a high value that may be exact or a test limit, other limits are often not marked, values filed in µg/mL are converted to µM
[1] = test system: Staphylococcus aureus NBRC 13276
[2] = test system: Escherichia coli DH5alpha
[3] = test system: Pseudomonas aeruginosa NBRC 13275
[4] = test system: Staphylococcus epidermidis KCTC 1917
[5] = test system: Staphylococcus aureus KCTC 1621
[6] = test system: Salmonella typhimurium KCTC 1926
[7] = test system: Enterococcus faecalis KCTC 2011
[8] = test system: Escherichia coli KCTC 1682
[9] = test system: Proteus vulgaris KCTC 2433
[10] = test system: Bacillus subtilis KCTC 3068
[11] = test system: Pseudomonas aeruginosa KCTC 1637
[12] = test system: Escherichia coli ATCC 25922
[13] = test system: Staphylococcus epidermidis ATCC 12228
[14] = test system: Pseudomonas aeruginosa PAO1
[15] = test system: Escherichia coli MG1655
[16] = test system: Pseudomonas aeruginosa PA7
[17] = test system: Staphylococcus aureus NCTC 8325
[18] = test system: Micrococcus luteus DSM 1790
[19] = test system: Escherichia coli BL21AI
[20] = test system: Staphylococcus aureus
[21] = test system: Klebsiella pneumoniae
[22] = test system: Vibrio cholerae N16961
[23] = test system: Acinetobacter baumannii NM35
[24] = test system: Enterococcus faecalis ATCC 29212
[25] = test system: Staphylococcus epidermidis RP62A/1
[26] = test system: Acinetobacter baumannii NM75
[27] = test system: Staphylococcus epidermidis T37/8
[28] = test system: Acinetobacter baumannii NM8
[29] = test system: Stenotrophomonas maltophilia B5/5
[30] = test system: Stenotrophomonas maltophilia U8908
[31] = test system: Staphylococcus epidermidis T6/19
[32] = test system: Pseudomonas aeruginosa ATCC 27853
[33] = test system: Escherichia coli ATCC 25726
[34] = test system: Staphylococcus aureus ATCC 25923
[35] = test system: Staphylococcus aureus 145/08
[36] = test system: Staphylococcus epidermidis RP62A
[37] = test system: Candida albicans ATCC 90028
[38] = test system: Acinetobacter baumannii NM109
[39] = test system: Klebsiella pneumoniae ATCC 700603
[40] = test system: Stenotrophomonas maltophilia B6/2
[41] = test system: Acinetobacter baumannii NM124
[42] = test system: Stenotrophomonas maltophilia B32/1
[43] = test system: Stenotrophomonas maltophilia B32/4

For `CC[C@H](C)[C@H](NC(=O)[C@H](CCC(=O)O)NC(=O)CNC(=O)[C@@H](NC(=O)[C@H](Cc1ccccc1)NC(=O)[C@H](C)NC(=O)[C@H](CCCCN)NC(=O)CNC(=O)[C@H](Cc1ccccc1)NC(=O)[C@H](CCCCN)NC(=O)[C@H](CCCCN)NC(=O)[C@H](C)NC(=O)[C@H](CO)NC(=O)[C@H](Cc1cnc[nH]1)NC(=O)[C@H](CC(C)C)NC(=O)[C@H](Cc1ccccc1)NC(=O)[C@H](CCCCN)NC(C)=O)C(C)C)C(=O)N[C@@H](CCSC)C(=O)N[C@@H](CC(N)=O)C(=O)N[C@@H](CO)C(N)=O` [KFLHSAKKFGKAFVGEIMNS], the MIC [1] was ≥ 400 µM, the MIC [2] was ≥ 200 µM and the MIC [3] was ≥ 200 µM.
For `CC[C@H](C)[C@H](NC(=O)CN)C(=O)NCC(=O)N[C@@H](CCCCN)C(=O)N[C@@H](Cc1c[nH]c2ccccc12)C(=O)N[C@@H](CC(C)C)C(=O)N[C@@H](Cc1cnc[nH]1)C(=O)N[C@@H](CO)C(=O)N[C@@H](C)C(=O)N[C@@H](CCCCN)C(=O)N[C@@H](CCCCN)C(=O)N[C@@H](Cc1ccccc1)C(=O)NCC(=O)N[C@@H](CCCCN)C(=O)N[C@@H](C)C(=O)N[C@@H](Cc1ccccc1)C(=O)N[C@H](C(=O)NCC(=O)N[C@@H](CCC(=O)O)C(=O)N[C@H](C(=O)N[C@@H](CCSC)C(=O)N[C@@H](CC(N)=O)C(=O)N[C@@H](CO)C(=O)O)[C@@H](C)CC)C(C)C` [GIGKWLHSAKKFGKAFVGEIMNS], the MIC [4] was 16 µM (≈ 40.1 µg/mL), the MIC [5] was 22.6 µM (≈ 56.7 µg/mL) and the MIC [6] was 22.6 µM (≈ 56.7 µg/mL). For the same compound, the MIC [7] was 16 µM (≈ 40.1 µg/mL), the MIC [8] was ≥ 32 µM and the MIC [9] was ≥ 45.3 µM. The MIC [10] was 8 µM (≈ 20 µg/mL), the MIC [11] was ≥ 32 µM and the MIC [12] was 8 µM and 20 µM. For the same compound, the MIC [13] was 20 µM and 40 µM.
Work on `CC[C@H](C)[C@H](NC(=O)[C@@H](N)CCCCN)C(=O)N1CCC[C@H]1C(=O)N1CCC[C@H]1C(=O)N[C@H](C(=O)N[C@H](C(=O)N[C@@H](CCCCN)C(=O)N[C@@H](CC(=O)O)C(=O)N[C@H](C(=O)N[C@@H](CC(C)C)C(=O)N[C@@H](CCCCN)C(=O)N[C@@H](CCCCN)C(=O)N[C@H](C(=O)N[C@@H](C)C(=O)N[C@@H](CCCCN)C(=O)NCC(=O)N[C@H](C(=O)N[C@@H](CC(C)C)C(=O)N[C@@H](CO)C(=O)N[C@@H](C)C(=O)N[C@H](C(=O)N[C@@H](C)C(=O)NCC(=O)N[C@@H](C)C(=O)N[C@@H](CC(C)C)C(=O)N[C@@H](CO)C(=O)O)C(C)C)C(C)C)C(C)C)[C@@H](C)O)C(C)C)C(C)C` [KIPPVVKDTLKKVAKGVLSAVAGALS] yielded an MIC [14] of 16 µM (≈ 41.4 µg/mL), an MIC [15] of 2 µM (≈ 5.18 µg/mL) and an MIC [16] of 16 µM (≈ 41.4 µg/mL). The MIC [17] was ≥ 181 µM.
In the case of `CC[C@H](C)[C@H](NC(=O)[C@H](CCCN=C(N)N)NC(=O)[C@H](CCCN=C(N)N)NC(=O)[C@@H]1CCCN1C(=O)[C@@H]1CCCN1C(=O)[C@H](Cc1cnc[nH]1)NC(=O)[C@@H]1CCCN1C(=O)[C@H](CCCN=C(N)N)NC(=O)[C@@H]1CCCN1C(=O)[C@H](CC(C)C)NC(=O)[C@H](Cc1ccc(O)cc1)NC(=O)[C@@H]1CCCN1C(=O)[C@@H]1CCCN1C(=O)[C@H](CCCCN)NC(=O)[C@H](CC(=O)O)NC(=O)[C@@H](N)C(C)C)C(=O)N[C@@H](Cc1ccc(O)cc1)C(=O)N[C@@H](CC(N)=O)C(=O)O` [VDKPPYLPRPHPPRRIYN], the MIC [18] is reported as 14.1 µM (≈ 31.3 µg/mL) and the MIC [19] is reported as 28.2 µM (≈ 62.5 µg/mL).
In the case of `CC[C@H](C)[C@@H]1NC(=O)CNC(=O)[C@@H](NC(=O)[C@H](CC(C)C)NC(=O)[C@@H](NC(=O)[C@H](CO)NC(=O)[C@@H]2CCCN2C(=O)[C@H](CC(C)C)NC(=O)[C@@H](NC(=O)[C@H](CCCCN)NC(=O)[C@H](C)NC(=O)CNC(=O)[C@@H](NC(=O)[C@H](CCCCN)NC(=O)[C@H](CC(C)C)NC(=O)[C@H](CC(C)C)NC(=O)[C@H](C)NC(=O)CNC(=O)[C@H](CC(C)C)NC(=O)[C@@H](N)Cc2ccccc2)[C@@H](C)CC)C(C)C)C(C)C)CSSC[C@@H](C(N)=O)NC(=O)[C@H](CCCCN)NC(=O)[C@H](CCCCN)NC(=O)[C@H](Cc2ccccc2)NC1=O` [FLGALLKIGAKVLPSVLCGIFKKC], the MIC [20] is reported as 4 µM (≈ 10.1 µg/mL), the MIC [21] is reported as 15 µM (≈ 37.7 µg/mL) and the MIC [22] is reported as 4.5 µM (≈ 11.3 µg/mL).
Compound `CC[C@H](C)[C@H](NC(=O)[C@H](C)NC(=O)[C@@H](NC(=O)[C@H](C)NC(=O)CNC(=O)[C@H](CCCCN)NC(=O)[C@@H](NC(=O)[C@H](C)NC(=O)CNC(=O)[C@H](CCCCN)NC(=O)[C@H](CC(C)C)NC(=O)[C@@H](NC(=O)[C@H](CCCCN)NC(=O)[C@H](CCCCN)NC(=O)[C@H](CC(C)C)NC(=O)[C@@H](NC(=O)[C@H](CCCCN)NC(=O)[C@H](CCCCN)NC(=O)[C@@H](NC(=O)[C@H](CCCCN)NC(=O)[C@@H]1CCCN1C(=O)[C@H](CO)NC(=O)[C@H](CC(C)C)NC(=O)[C@H](CCCCN)NC(=O)[C@@H](N)CC(C)C)[C@@H](C)O)[C@@H](C)O)C(C)C)[C@@H](C)CC)[C@@H](C)CC)C(=O)N[C@@H](C)C(=O)N[C@@H](CO)C(=O)N[C@@H](CCSC)C(=O)N[C@@H](C)C(=O)O` [LKLSPKTKKTLKKVLKGAIKGAIAIASMA] has an MIC [23] of 2.5 µM (≈ 7.52 µg/mL), an MIC [24] of 5 µM (≈ 15 µg/mL) and an MIC [25] of 1.25 µM (≈ 3.76 µg/mL). For the same compound, the MIC [26] was 2.5 µM (≈ 7.52 µg/mL), the MIC [27] was 1.25 µM (≈ 3.76 µg/mL) and the MIC [28] was 2.5 µM (≈ 7.52 µg/mL). The MIC [29] was 2.5 µM (≈ 7.52 µg/mL), the MIC [30] was 2.5 µM (≈ 7.52 µg/mL) and the MIC [31] was 1.25 µM (≈ 3.76 µg/mL). It also gave an MIC [32] of 10 µM (≈ 30.1 µg/mL), an MIC [33] of 2.5 µM (≈ 7.52 µg/mL) and an MIC [34] of 2.5 µM (≈ 7.52 µg/mL). The MIC [35] was 2.5 µM (≈ 7.52 µg/mL), the MIC [36] was 1.25 µM (≈ 3.76 µg/mL) and the MIC [37] was ≥ 80 µM. For the same compound, the MIC [38] was 5 µM (≈ 15 µg/mL), the MIC [39] was 5 µM (≈ 15 µg/mL) and the MIC [40] was 1.25 µM (≈ 3.76 µg/mL). For the same compound, the MIC [41] was 2.5 µM (≈ 7.52 µg/mL), the MIC [42] was 2.5 µM (≈ 7.52 µg/mL) and the MIC [43] was 1.25 µM (≈ 3.76 µg/mL).
